Data reported in ChEMBL document CHEMBL3875196, “Novel pyrazolo[1,5-a]pyridines with improved aqueous solubility as p110α-selective PI3 kinase inhibitors” (Bioorg Med Chem Lett, 2017).

Assays:
[1] = Antiproliferative activity against wild type p110alpha expressing human NZOV9 cells after 5 days by [3H]-thymidine incorporation assay; assay type: functional, cell-based
[2] = Inhibition of recombinant mouse p110alpha/N-terminal His-tagged human p85alpha expressed in baculovirus infected Sf21 cells using L-alpha-phosphatidylinositol as substrate after 1 hr in presence of [gamma33]-ATP by thin layer chromatographic analysis
[3] = Antiproliferative activity against wild type p110alpha expressing human NZB5 cells after 5 days by [3H]-thymidine incorporation assay; assay type: functional, cell-based
[4] = target: T1, Phosphatidylinositol 4,5-bisphosphate 3-kinase catalytic subunit delta isoform (Homo sapiens, UniProt O00329); test: Inhibition of p110delta (unknown origin) using L-alpha phosphatidylinositol as substrate after 1 hr in presence of [gamma33]-ATP by thin layer chromatographic analysis
T1 sequence (O00329 whole entry): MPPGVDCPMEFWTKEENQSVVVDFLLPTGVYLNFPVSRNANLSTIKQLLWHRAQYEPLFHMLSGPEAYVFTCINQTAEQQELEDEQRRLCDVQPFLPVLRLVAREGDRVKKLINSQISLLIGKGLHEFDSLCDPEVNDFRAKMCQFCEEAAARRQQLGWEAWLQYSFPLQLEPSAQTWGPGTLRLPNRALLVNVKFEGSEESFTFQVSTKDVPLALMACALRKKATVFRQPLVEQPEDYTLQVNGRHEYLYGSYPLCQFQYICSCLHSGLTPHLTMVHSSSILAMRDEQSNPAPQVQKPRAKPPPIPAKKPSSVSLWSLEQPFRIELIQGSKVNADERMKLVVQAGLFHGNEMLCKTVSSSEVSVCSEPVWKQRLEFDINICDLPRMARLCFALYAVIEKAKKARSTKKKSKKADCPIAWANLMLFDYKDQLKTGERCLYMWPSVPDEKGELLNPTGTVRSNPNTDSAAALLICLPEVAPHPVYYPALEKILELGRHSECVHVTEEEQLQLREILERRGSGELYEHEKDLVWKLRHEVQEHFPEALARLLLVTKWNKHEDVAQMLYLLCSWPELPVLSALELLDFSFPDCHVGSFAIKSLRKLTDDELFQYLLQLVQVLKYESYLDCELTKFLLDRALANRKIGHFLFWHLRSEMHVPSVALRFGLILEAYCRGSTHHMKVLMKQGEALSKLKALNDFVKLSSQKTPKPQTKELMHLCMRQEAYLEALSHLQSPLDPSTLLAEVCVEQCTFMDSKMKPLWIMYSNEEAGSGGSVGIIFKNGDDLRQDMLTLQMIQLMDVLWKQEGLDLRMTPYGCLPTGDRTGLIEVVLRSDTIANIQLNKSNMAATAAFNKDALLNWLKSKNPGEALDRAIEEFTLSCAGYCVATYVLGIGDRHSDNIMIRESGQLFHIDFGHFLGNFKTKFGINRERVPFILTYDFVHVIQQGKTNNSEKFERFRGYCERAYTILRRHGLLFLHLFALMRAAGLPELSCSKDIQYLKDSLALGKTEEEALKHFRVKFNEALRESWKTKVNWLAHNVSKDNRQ

PI3K p110 beta/p85 alpha = PI3K p110 beta/p85 alpha (Homo sapiens, UniProt P42338); test: Inhibition of recombinant human p110beta/N-terminal His-tagged human p85alpha expressed in baculovirus infected sf cells using L-alpha-phosphatidylinositol as substrate after 1 hr in presence of [gamma33]-ATP by thin layer chromatographic analysis
PI3K p110 beta/p85 alpha, sequence (P27986 whole entry): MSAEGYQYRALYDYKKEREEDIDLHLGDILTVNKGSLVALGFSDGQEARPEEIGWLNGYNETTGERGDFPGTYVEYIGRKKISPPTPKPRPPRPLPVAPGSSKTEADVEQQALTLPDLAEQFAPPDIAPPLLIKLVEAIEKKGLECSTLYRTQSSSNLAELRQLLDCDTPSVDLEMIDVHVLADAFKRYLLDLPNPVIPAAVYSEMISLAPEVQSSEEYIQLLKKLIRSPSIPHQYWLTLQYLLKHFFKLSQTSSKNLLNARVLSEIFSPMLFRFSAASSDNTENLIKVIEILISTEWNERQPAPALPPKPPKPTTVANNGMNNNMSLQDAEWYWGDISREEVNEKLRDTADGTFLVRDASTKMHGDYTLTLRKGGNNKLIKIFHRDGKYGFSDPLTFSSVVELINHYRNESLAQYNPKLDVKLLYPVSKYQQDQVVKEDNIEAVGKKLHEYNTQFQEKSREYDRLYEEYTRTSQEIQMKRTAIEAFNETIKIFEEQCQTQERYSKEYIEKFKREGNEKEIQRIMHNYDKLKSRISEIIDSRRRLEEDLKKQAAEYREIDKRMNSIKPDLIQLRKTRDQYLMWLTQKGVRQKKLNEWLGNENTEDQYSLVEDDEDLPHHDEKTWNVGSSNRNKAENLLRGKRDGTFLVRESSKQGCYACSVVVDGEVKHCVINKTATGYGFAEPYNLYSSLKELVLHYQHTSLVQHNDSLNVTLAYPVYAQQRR
PI3K p110 beta/p85 alpha, sequence (P42338 whole entry): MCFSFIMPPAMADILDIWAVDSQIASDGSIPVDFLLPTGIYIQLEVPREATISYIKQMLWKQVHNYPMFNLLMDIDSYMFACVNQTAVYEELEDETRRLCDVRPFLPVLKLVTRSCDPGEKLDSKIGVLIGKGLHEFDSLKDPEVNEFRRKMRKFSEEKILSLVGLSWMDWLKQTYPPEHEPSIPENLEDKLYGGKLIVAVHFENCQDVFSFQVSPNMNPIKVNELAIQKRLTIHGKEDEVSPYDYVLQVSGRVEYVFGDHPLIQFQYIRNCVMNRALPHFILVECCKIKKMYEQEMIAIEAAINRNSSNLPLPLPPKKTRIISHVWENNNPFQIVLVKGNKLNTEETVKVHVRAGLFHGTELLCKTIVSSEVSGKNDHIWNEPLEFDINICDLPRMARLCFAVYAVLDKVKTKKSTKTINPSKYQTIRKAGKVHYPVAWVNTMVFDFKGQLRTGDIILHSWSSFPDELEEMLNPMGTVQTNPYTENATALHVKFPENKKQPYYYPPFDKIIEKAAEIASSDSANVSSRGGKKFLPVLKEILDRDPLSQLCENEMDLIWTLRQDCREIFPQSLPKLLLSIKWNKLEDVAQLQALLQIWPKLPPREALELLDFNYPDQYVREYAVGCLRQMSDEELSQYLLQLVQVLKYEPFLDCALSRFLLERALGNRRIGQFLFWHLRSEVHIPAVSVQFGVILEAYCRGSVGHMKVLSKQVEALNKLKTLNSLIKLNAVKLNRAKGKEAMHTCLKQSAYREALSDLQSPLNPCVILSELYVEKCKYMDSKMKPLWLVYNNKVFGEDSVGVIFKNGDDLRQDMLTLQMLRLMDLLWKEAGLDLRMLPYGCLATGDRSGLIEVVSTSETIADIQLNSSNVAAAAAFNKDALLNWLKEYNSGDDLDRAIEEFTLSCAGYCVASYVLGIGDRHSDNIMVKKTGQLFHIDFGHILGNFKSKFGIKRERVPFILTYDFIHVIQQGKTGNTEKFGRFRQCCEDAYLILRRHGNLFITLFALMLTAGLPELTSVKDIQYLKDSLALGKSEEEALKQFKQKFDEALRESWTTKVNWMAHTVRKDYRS

SMILES | IC50 [1] [nM] | IC50 [2] [nM] | IC50 [3] [nM] | IC50 [4] [nM] | IC50 (PI3K p110 beta/p85 alpha) [nM]
C/C(=N\NS(=O)(=O)c1cc([N+](=O)[O-])ccc1N(C)CCCN1CCOCC1)c1cnn2ccc(Br)cc12 | 3200 | 448 | 900 |  | 
CN(/N=C/c1cnn2ccc(C#N)cc12)S(=O)(=O)c1cc([N+](=O)[O-])ccc1NCCN1CCOCC1 | > 20000 | 9 | 9400 | 27 | > 1000
CN(CCc1cccnc1)c1ccc([N+](=O)[O-])cc1S(=O)(=O)N(C)/N=C/c1cnn2ccc(C#N)cc12 | 740 | 9 | < 2 | 55 | 180
CN(/N=C/c1cnn2ccc(C#N)cc12)S(=O)(=O)c1cc(C#N)ccc1OCCN1CCOCC1 | 390 | 360 | 400 | 680 | > 1000
Cc1ccc([N+](=O)[O-])cc1S(=O)(=O)N(CCO)/N=C/c1cnn2ccc(C#N)cc12 | 140 | 1.3 |  |  | 
CN(/N=C/c1cnn2ccc(Br)cc12)S(=O)(=O)c1cc([N+](=O)[O-])ccc1OCCN1CCOCC1 | 550 | 51 | 270 | 350 | 2900
CN(C)CCN(C)c1ccc([N+](=O)[O-])cc1S(=O)(=O)N(C)/N=C/c1cnn2ccc(Br)cc12 | < 2 | 510 | < 2 |  | 
CN(CCc1ccccn1)c1ccc([N+](=O)[O-])cc1S(=O)(=O)N(C)/N=C/c1cnn2ccc(C#N)cc12 | 410 | 9 | 5 | 60 | 410
CN(CCCN1CCOCC1)c1ccc(C#N)cc1S(=O)(=O)N(C)/N=C/c1cnn2ccc(C#N)cc12 | 360 | 240 | 21 | 370 | > 1000
CN(/N=C/c1cnn2ccc(C#N)cc12)S(=O)(=O)c1cc([N+](=O)[O-])ccc1OCc1ccccn1 | 660 | 6 | 1300 | 950 | 5600
CN(C)CCNc1ccc([N+](=O)[O-])cc1S(=O)(=O)N(C)/N=C/c1cnn2ccc(C#N)cc12 | 640 | 430 | 750 | > 1000 | > 1000
CN(CCN1CCCCC1)c1ccc([N+](=O)[O-])cc1S(=O)(=O)N(C)/N=C/c1cnn2ccc(C#N)cc12 | 49 | 79 | 92 | 450 | 4200
C/C(=N\NS(=O)(=O)c1cc([N+](=O)[O-])ccc1N(C)CCN(C)C)c1cnn2ccc(C#N)cc12 | 2000 | 51 | 460 | 676 | 900
CN(CCc1ccncc1)c1ccc([N+](=O)[O-])cc1S(=O)(=O)N(C)/N=C/c1cnn2ccc(C#N)cc12 | 250 | 17 | < 2 | 61 | 160
C/C(=N\N(C)S(=O)(=O)c1cc([N+](=O)[O-])ccc1N(C)CCN(C)C)c1cnn2ccc(C#N)cc12 | 860 | 328 | 1800 | 658 | > 1000
CN(Cc1ccccn1)c1ccc([N+](=O)[O-])cc1S(=O)(=O)N(C)/N=C/c1cnn2ccc(Br)cc12 | 580 | 180 | 93 |  | > 1000
CN(C)CCN(C)c1ccc([N+](=O)[O-])cc1S(=O)(=O)N(C)/N=C/c1cnn2ccc(C#N)cc12 | 55 | 46 | 49 | 230 | 670
CN(C)CCOc1ccc([N+](=O)[O-])cc1S(=O)(=O)N(C)/N=C/c1cnn2ccc(C#N)cc12 | 170 | 75 | 100 | > 1000 | > 1000
C/C(=N\N(C)S(=O)(=O)c1cc([N+](=O)[O-])ccc1N(C)Cc1ccccn1)c1cnn2ccc(Br)cc12 | 3000 | 1040 | 2600 |  | 

SMILES | IC50 [1] [nM] | IC50 [2] [nM] | IC50 [3] [nM] | IC50 [4] [nM] | IC50 (PI3K p110 beta/p85 alpha) [nM]
CNCCN(C)c1ccc([N+](=O)[O-])cc1S(=O)(=O)N(C)/N=C/c1cnn2ccc(C#N)cc12 | 11 | 65 | 24 | 280 | 1000
CN(C)CCN(C)c1ccc([N+](=O)[O-])cc1C(=O)N(C)/N=C/c1cnn2ccc(C#N)cc12 | 3100 | 580 | 5600 | 68 | 230
CN(Cc1ccccn1)c1ccc(C#N)cc1S(=O)(=O)N(C)/N=C/c1cnn2ccc(C#N)cc12 | 960 | 40 | 130 |  | 
CN(CCCN1CCOCC1)c1ccc([N+](=O)[O-])cc1S(=O)(=O)N(C)/N=C/c1cnn2ccc(C#N)cc12 | 560 | 26 | 71 | 170 | 510
CN(CCN1CCOCC1)c1ccc([N+](=O)[O-])cc1S(=O)(=O)N(C)/N=C/c1cnn2ccc(C#N)cc12 | 210 | 19 | 260 | 74 | 1000
C/C(=N\N(C)S(=O)(=O)c1cc([N+](=O)[O-])ccc1N(C)CCCN1CCOCC1)c1cnn2ccc(Br)cc12 | 3800 | > 1000 | 5100 |  | 
CN(Cc1ccncc1)c1ccc([N+](=O)[O-])cc1S(=O)(=O)N(C)/N=C/c1cnn2ccc(C#N)cc12 | 480 | 15 | 44 | 150 | 390
C/C(=N\N(C)S(=O)(=O)c1cc([N+](=O)[O-])ccc1N(C)CCN(C)C)c1cnn2ccc(Br)cc12 | 930 | > 1000 | 3500 | > 1000 | 
CCN(CC)CCN(C)c1ccc([N+](=O)[O-])cc1S(=O)(=O)N(C)/N=C/c1cnn2ccc(C#N)cc12 | 340 | 75 | 500 | 66 | 330
CN(Cc1cccnc1)c1ccc([N+](=O)[O-])cc1S(=O)(=O)N(C)/N=C/c1cnn2ccc(C#N)cc12 | 630 | 5.8 | 540 | 160 | 530
CN(Cc1ccccn1)c1ccc([N+](=O)[O-])cc1S(=O)(=O)N(C)/N=C/c1cnn2ccc(C#N)cc12 | 330 | 10 | 90 | 130 | 450
CN(/N=C/c1cnn2ccc(C#N)cc12)S(=O)(=O)c1cc([N+](=O)[O-])ccc1NCc1ccccn1 | 680 | 25 | 1100 | 350 | > 1000
C/C(=N\NS(=O)(=O)c1cc([N+](=O)[O-])ccc1N(C)CCN(C)C)c1cnn2ccc(Br)cc12 | 420 | 208 | 420 | > 1000 | > 1000
CN(/N=C/c1cnn2ccc(C#N)cc12)S(=O)(=O)c1cc([N+](=O)[O-])ccc1OCCN1CCOCC1 | 410 | 21 | 440 | 94 | 220
C/C(=N\N(C)S(=O)(=O)c1cc([N+](=O)[O-])ccc1N(C)CCCN1CCOCC1)c1cnn2ccc(C#N)cc12 | 2400 | > 1000 | 3300 |  | 
CN(CCN)c1ccc([N+](=O)[O-])cc1S(=O)(=O)N(C)/N=C/c1cnn2ccc(C#N)cc12 | 57 | 50 | 29 | 470 | > 1000
CN(C)CCN(C)c1ccc(C#N)cc1C(=O)N(C)/N=C/c1cnn2ccc(C#N)cc12 | 6200 | 630 | 2900 |  | 
CN(CCCN1CCOCC1)c1ccc([N+](=O)[O-])cc1S(=O)(=O)N(C)/N=C/c1cnn2ccc(Br)cc12 | 670 | 370 | 94 |  | 
C/C(=N\NS(=O)(=O)c1cc([N+](=O)[O-])ccc1N(C)CCCN1CCOCC1)c1cnn2ccc(C#N)cc12 | 9500 | 333 | 2400 |  | 
